In patent US12059420B2 (BRISTOL-MYERS SQUIBB COMPANY, priority 2018, dated 2024) one finds IC50 data, which are given here for 32 compounds.

The target in the experiment is T1, human IDO1 (Homo sapiens, UniProt P14902).
T1 construct: expressed in transfected cells
T1 sequence (P14902 whole entry): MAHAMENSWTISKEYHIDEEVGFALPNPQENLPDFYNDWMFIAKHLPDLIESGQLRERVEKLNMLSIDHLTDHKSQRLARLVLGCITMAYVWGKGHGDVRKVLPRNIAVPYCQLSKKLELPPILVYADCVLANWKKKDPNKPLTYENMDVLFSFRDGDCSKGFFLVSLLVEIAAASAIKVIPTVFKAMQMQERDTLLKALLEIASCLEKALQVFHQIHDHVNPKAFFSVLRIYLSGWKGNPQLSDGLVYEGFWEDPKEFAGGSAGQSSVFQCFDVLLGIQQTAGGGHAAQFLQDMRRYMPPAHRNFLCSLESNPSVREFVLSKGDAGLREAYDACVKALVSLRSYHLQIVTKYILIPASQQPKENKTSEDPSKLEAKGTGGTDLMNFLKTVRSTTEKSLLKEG
In words: IDO inhibition assay in HEK293 cells stably expressing human IDO1 (kynurenine production, Ehrlich reagent, absorbance 490 nm). The note with it: 20 hours incubation with compound, 500 nM reference standard = 100% inhibition, read-out: IDO1 HEK Human IC50. Format: cell-based. An outline of the steps: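 HEK293 clones stably expressing human IDO1 (10,000 cells/well, phenol red-free RPMI, 10% FBS) were treated with compound for 20 hours at 37° C. After 0.2% TCA and 30 min at 50° C., kynurenine was read with Ehrlich reagent at 490 nm. IC50 was normalised to DMSO (0%) and 500 nM reference standard (100%).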
Take `CCCN(Cc1ccccc1)c1cc(NC(=O)Cc2ccc3ccccc3c2)cc(-c2ccccc2-c2nn[nH]n2)n1` [Example 201, N-(2-(2-(2H-tetrazol-5-yl)phenyl)-6-(benzyl(propyl)amino)pyridin-4-yl)-2-(naphthalen-2-yl)acetamide]: the IC50 was 34.2 nM.

Consider `CCCN(Cc1ccccc1)c1cc(NC(=O)Cc2ccccc2F)cc(-c2ccccc2-c2nn[nH]n2)n1` [Example 202, N-(2-(2-(2H-tetrazol-5-yl)phenyl)-6-(benzyl(propyl)amino)pyridin-4-yl)-2-(2-fluorophenyl)acetamide], for which the IC50 is 202 nM. As to `CCCN(Cc1ccccc1)c1cc(NC(=O)Cc2ccccc2OC)cc(-c2ccccc2-c2nn[nH]n2)n1` [Example 203, N-(2-(2-(2H-tetrazol-5-yl)phenyl)-6-(benzyl(propyl)amino)pyridin-4-yl)-2-(2-methoxyphenyl)acetamide], the IC50 worked out at 305 nM.

In the case of `CCCN(Cc1ccccc1)c1cc(NC(=O)Cc2cc(OC)ccc2OC)cc(-c2ccccc2-c2nn[nH]n2)n1` [Example 204, N-(2-(2-(2H-tetrazol-5-yl)phenyl)-6-(benzyl(propyl)amino)pyridin-4-yl)-2-(2,5-dimethoxyphenyl)acetamide], the IC50 amounted to 159 nM. `CCCN(Cc1ccccc1)c1cc(NC(=O)Cc2ccccc2C(F)(F)F)cc(-c2ccccc2-c2nn[nH]n2)n1` [Example 205, N-(2-(2-(2H-tetrazol-5-yl)phenyl)-6-(benzyl(propyl)amino)pyridin-4-yl)-2-(2-(trifluoromethyl)phenyl)acetamide]: the concentration for half-maximal inhibition (IC50) worked out at 80.2 nM. Take `CCCN(Cc1ccccc1)c1cc(NC(=O)Cc2cccs2)cc(-c2ccccc2-c2nn[nH]n2)n1` [Example 206, N-(2-(2-(2H-tetrazol-5-yl)phenyl)-6-(benzyl(propyl)amino)pyridin-4-yl)-2-(thiophen-2-yl)acetamide]: the IC50 was 323 nM.

As for `CCCN(Cc1ccccc1)c1cc(NC(=O)Cc2c[nH]cn2)cc(-c2ccccc2-c2nn[nH]n2)n1` [Example 207, N-(2-(2-(2H-tetrazol-5-yl)phenyl)-6-(benzyl(propyl)amino)pyridin-4-yl)-2-(1H-imidazol-4-yl)acetamide], the IC50 is 3430 nM. For `CCCN(Cc1ccccc1)c1cc(NC(=O)Cc2cc(OC)cc(OC)c2)cc(-c2ccccc2-c2nn[nH]n2)n1` [Example 208, N-(2-(2-(2H-tetrazol-5-yl)phenyl)-6-(benzyl(propyl)amino)pyridin-4-yl)-2-(3,5-dimethoxyphenyl)acetamide], the IC50 is 544 nM. For `CCCN(Cc1ccccc1)c1cc(NC(=O)Cc2cnccn2)cc(-c2ccccc2-c2nn[nH]n2)n1` [Example 210, N-(2-(2-(2H-tetrazol-5-yl)phenyl)-6-(benzyl(propyl)amino)pyridin-4-yl)-2-(pyrazin-2-yl)acetamide], the IC50 was 1710 nM.

As to `CCCN(Cc1ccccc1)c1cc(NC(=O)Cc2csc(C)n2)cc(-c2ccccc2-c2nn[nH]n2)n1` [Example 211, N-(2-(2-(2H-tetrazol-5-yl)phenyl)-6-(benzyl(propyl)amino)pyridin-4-yl)-2-(2-methylthiazol-4-yl)acetamide], the IC50 worked out at 906 nM. To `CCCN(Cc1ccccc1)c1cc(NC(=O)C(F)c2ccccc2)cc(-c2ccccc2-c2nn[nH]n2)n1` (centres unmarked) [Example 212, N-(2-(2-(2H-tetrazol-5-yl)phenyl)-6-(benzyl(propyl)amino)pyridin-4-yl)-2-fluoro-2-phenylacetamide] belongs 224 nM; to `CCCN(Cc1ccccc1)c1cc(NC(=O)Cc2c(C)noc2C)cc(-c2ccccc2-c2nn[nH]n2)n1` [Example 213, N-(2-(2-(2H-tetrazol-5-yl)phenyl)-6-(benzyl(propyl)amino)pyridin-4-yl)-2-(3,5-dimethylisoxazol-4-yl)acetamide], 651 nM. With `CCCN(Cc1ccccc1)c1cc(NC(=O)Cc2csc3ccccc23)cc(-c2ccccc2-c2nn[nH]n2)n1` [Example 216, N-(2-(2-(2H-tetrazol-5-yl)phenyl)-6-(benzyl(propyl)amino)pyridin-4-yl)-2-(benzo[b]thiophen-3-yl)acetamide], the 50% inhibitory concentration (IC50) was 76.8 nM. Turning to `CCCN(Cc1ccccc1)c1cc(NC(=O)Cc2cccc(Br)c2)cc(-c2ccccc2-c2nn[nH]n2)n1` [Example 217, N-(2-(2-(2H-tetrazol-5-yl)phenyl)-6-(benzyl(propyl)amino)pyridin-4-yl)-2-(3-bromophenyl)acetamide], the IC50 came out at 239 nM. `CCCN(Cc1ccccc1)c1cc(NC(=O)CC2CCCC2)cc(-c2ccccc2-c2nn[nH]n2)n1` [Example 218, N-(2-(2-(2H-tetrazol-5-yl)phenyl)-6-(benzyl(propyl)amino)pyridin-4-yl)-2-cyclopentylacetamide]: the IC50 turned out to be 1970 nM. To `CCCN(Cc1ccccc1)c1cc(NC(=O)Cc2cccc(OC(F)(F)F)c2)cc(-c2ccccc2-c2nn[nH]n2)n1` [Example 219] belongs 59.8 nM. Consider `CCCN(Cc1ccccc1)c1cc(NC(=O)Cc2ccc(C(C)C)cc2)cc(-c2ccccc2-c2nn[nH]n2)n1` [Example 220, N-(2-(2-(2H-tetrazol-5-yl)phenyl)-6-(benzyl(propyl)amino)pyridin-4-yl)-2-(4-isopropylphenyl)acetamide], for which the IC50 came out at 52.6 nM.

On to `CCCN(Cc1ccccc1)c1cc(NC(=O)Cc2cn(C)c3ccccc23)cc(-c2ccccc2-c2nn[nH]n2)n1` [Example 221, N-(2-(2-(2H-tetrazol-5-yl)phenyl)-6-(benzyl(propyl)amino)pyridin-4-yl)-2-(1-methyl-1H-indol-3-yl)acetamide], for which the IC50 stood at 249 nM. For the compound `CCCN(Cc1ccccc1)c1cc(NC(=O)Cn2ccnc2)cc(-c2ccccc2-c2nn[nH]n2)n1` [Example 222, N-(2-(2-(2H-tetrazol-5-yl)phenyl)-6-(benzyl(propyl)amino)pyridin-4-yl)-2-(1H-imidazol-1-yl)acetamide], the IC50 was determined as 3430 nM.

With `CCCN(Cc1ccccc1)c1cc(NC(=O)C2(c3ccccc3)CC2)cc(-c2ccccc2-c2nn[nH]n2)n1` [Example 223, N-(2-(2-(2H-tetrazol-5-yl)phenyl)-6-(benzyl(propyl)amino)pyridin-4-yl)-1-phenylcyclopropanecarboxamide], the IC50 was found to be 964 nM. Consider `CCCN(Cc1ccccc1)c1cc(NC(=O)C2(c3cccc(F)c3)CC2)cc(-c2ccccc2-c2nn[nH]n2)n1` [Example 224, N-(2-(2-(2H-tetrazol-5-yl)phenyl)-6-(benzyl(propyl)amino)pyridin-4-yl)-1-(3-fluorophenyl)cyclopropanecarboxamide], for which the IC50 came out at 3000 nM.

Take `CCCN(Cc1ccccc1)c1cc(NC(=O)Cc2ccccc2)cc(-c2ccccc2-c2nn[nH]n2)n1` [Example 225, N-(2-(2-(2H-tetrazol-5-yl)phenyl)-6-(benzyl(propyl)amino)pyridin-4-yl)-2-phenylacetamide]: the concentration for half-maximal inhibition (IC50) turned out to be 364 nM.

As to `CCCN(Cc1ccccc1)c1cc(NC(=O)Cc2cccnc2)cc(-c2ccccc2-c2nn[nH]n2)n1` [Example 226, N-(2-(2-(2H-tetrazol-5-yl)phenyl)-6-(benzyl(propyl)amino)pyridin-4-yl)-2-(pyridin-3-yl)acetamide], the half-maximal inhibitory concentration (IC50) came to 3360 nM.

With `CCCN(Cc1ccccc1)c1cc(NC(=O)Cc2ccc(C#N)cc2)cc(-c2ccccc2-c2nn[nH]n2)n1` [Example 227, N-(2-(2-(2H-tetrazol-5-yl)phenyl)-6-(benzyl(propyl)amino)pyridin-4-yl)-2-(4-cyanophenyl)acetamide], the IC50 amounted to 3350 nM. Next, `CC(C)CN(Cc1ccccc1)c1cc(NC(=O)Cc2ccc(F)c(F)c2)cc(-c2ccccc2-c2nnn[nH]2)n1` [Example 228, N-(2-(2-(1H-tetrazol-5-yl)phenyl)-6-(benzyl(isobutyl)amino)pyridin-4-yl)-2-(3,4-difluorophenyl)acetamide]: 669 nM; `CC(C)CN(Cc1ccccc1)c1cc(NC(=O)Cc2ccc(F)cc2F)cc(-c2ccccc2-c2nnn[nH]2)n1` [Example 229, N-(2-(2-(1H-tetrazol-5-yl)phenyl)-6-(benzyl(isobutyl)amino)pyridin-4-yl)-2-(2,4-difluorophenyl)acetamide]: 188 nM. For the compound `CC(C)CN(Cc1ccccc1)c1cc(NC(=O)Cc2ccc(C(C)C)cc2)cc(-c2ccccc2-c2nnn[nH]2)n1` [Example 230, N-(2-(2-(1H-tetrazol-5-yl)phenyl)-6-(benzyl(isobutyl)amino)pyridin-4-yl)-2-(4-isopropylphenyl)acetamide], the IC50 was found to be 139 nM. To `Cc1cc(CC(=O)Nc2cc(-c3ccccc3-c3nnn[nH]3)nc(N(Cc3ccccc3)CC(C)C)c2)on1` [Example 231, N-(2-(2-(1H-tetrazol-5-yl)phenyl)-6-(benzyl(isobutyl)amino)pyridin-4-yl)-2-(3-methylisoxazol-5-yl)acetamide] belongs 675 nM. With `CC(C)CN(Cc1ccccc1)c1cc(NC(=O)Cc2ccc(F)c(Cl)c2)cc(-c2ccccc2-c2nnn[nH]2)n1` [Example 233, N-(2-(2-(1H-tetrazol-5-yl)phenyl)-6-(benzyl(isobutyl)amino)pyridin-4-yl)-2-(3-chloro-4-fluorophenyl)acetamide], the half-inhibitory concentration (IC50) stood at 961 nM.

Turning to `CC(C)CN(Cc1ccccc1)c1cc(NC(=O)Cc2ccc(OC(F)(F)F)cc2)cc(-c2ccccc2-c2nnn[nH]2)n1` [Example 235, N-(2-(2-(1H-tetrazol-5-yl)phenyl)-6-(benzyl(isobutyl)amino)pyridin-4-yl)-2-(4-(trifluoromethoxy)phenyl)acetamide], the half-inhibitory concentration (IC50) worked out at 400 nM.

Take `CC(C)CN(Cc1ccccc1)c1cc(NC(=O)c2ccc(F)c(F)c2)cc(-c2ccccc2-c2nnn[nH]2)n1` [Example 236, N-(2-(2-(1H-tetrazol-5-yl)phenyl)-6-difluorobenzamide (benzyl(isobutyl)amino)pyridin-4-yl)-3,4-]: the IC50 was 687 nM. For the compound `CC(C)CN(Cc1ccccc1)c1cc(NC(=O)Nc2ccc(F)cc2F)cc(-c2ccccc2-c2nnn[nH]2)n1` [Example 237, 1-(2-(2-(1H-tetrazol-5-yl)phenyl)-6-(benzyl(isobutyl)amino)pyridin-4-yl)-3-(2,4-difluorophenyl)urea], the IC50 was 131 nM.
